Earlier results, collected in US20130122120A1, “INSECTICIDAL COMPOSITIONS AND METHODS” (priority 2011, published 2013).

How the values were obtained:
[1] = applied directly to skin or consumed
[2] = test system: aphids; details: nymphs and adults
[3] = test system: bacterial mutation

CCCCCCCCCCCCOS(=O)(=O)[O-].[Na+] [Sodium lauryl sulfate, Sodium dodecyl sulfate]
carcinogenicity [1]: not carcinogenic
efficacy against aphids [2]: some limited efficacy for treating aphids, killing the nymphs, but merely delays death in adults
Ames (bacterial mutation) test result [3]: negative
aggregation number (at the CMC): about 62
critical micelle concentration (CMC) (pure water at 25° C.): 8.2 mM
